In patent US10501479B2, “Benzenesulfonyl-asymmetric ureas and medical uses thereof” (HELSINN HEALTHCARE SA, priority 2016, dated 2019):
pEC50, pIC50: −log10 of the molar value. Like-named read-outs stand apart in the source and are kept apart here.

What was measured:
[1] = target: T1, recombinant human ghrelin receptor (HEK293/GRLN) (Homo sapiens, UniProt Q92847); experiment: Ghrelin inverse agonist potency (EC50) with IP-1 (IP-One HTRF) assay; format: cell-based; details: IP-1 assay
T1 construct: expressed in transfected cells
Summary of the method: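 HEK293/GRLN cells were seeded 18-22 hours before the test, then exposed to compound in stimulation buffer for 1 hour at 37° C, 5% CO2. IP-1 was detected by IP-One HTRF (IP1-d2 plus Tb-cryptate, 1 hour RT), reading 620 and 665 nm; the inverse agonist EC50 was derived from this.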

[2] = Animal PK study in mouse via i.v., p.o. and s.c. administration; format: in vivo; details: for PK CLiv / PK Vdiv / PK t1/2iv: i.v.; for PK CLpo / PK Vdpo / PK t1/2po: p.o.
Procedure: All treated animals received a single dose of a test compound (either through i.v., p.o., or s.c. administration) according to the regimen shown in the following table:
For oral dose groups, appropriate amount of test compound was prepared in the following formulation carrier: 1% DMSO (increase to 5% maximum if necessary) and 0.5% Methycellulose. Each mouse or rat received by oral gavage 10 mL/kg of the formulation mixture.
For i.v. and s.c dose groups, appropriate amount of test compound was dissolved in 1% DMSO (increase to 5% maximum if necessary), 99% of 20% HP-β-Cyclodextron (w/v). The pH was adjusted accordingly. Each mouse or rat received 5 mL/kg of the formulation mixture. i.v. dose was administered by tail vein injection. Subcutaneous injection was administered over the shoulders, into the loose skin over the neck. At designated time points (e.g., i.v. and s.c.: 0.083, 0.25, 0.5, 1, 2, 4, 8 and 24 hrs; p.o.: 0.25, 0.5, 1, 2, 4, 8 and 24 hrs), systemic samples of blood (50 μL in mouse or 500 μL in rat) were collected by puncture (submandibular vein in mouse or jugular vein in rat) into vacutainers containing EDTA-K2 as anti-coagulant. The blood was centrifuged at 6000 rpm for 8 min at 4° C. to obtain plasma. All plasma samples were stored at −20° C. All plasma samples were added to acetonitrile for protein precipitation and quantitatively analyzed by LC-MS/MS.

[3] = target: T2, GHSR-1a (HEK293/GHSR1a cell line) (Homo sapiens, UniProt Q92847); experiment: Ghrelin antagonist potency (IC50) with calcium FLIPR assay, ghrelin 10 nM; format: cell-based; details: ghrelin antagonist potency
T2 construct: expressed in transfected cells; host or cells: HEK293/GHSR1a cell line
Summary of the method: (§1)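 Dye preload 30-60 min, RT or 37° C; compound in DMSO. Agonist mode: compound at t=20 sec, Ca2+ read 2 min. Antagonist mode: compound + ghrelin 10 nM at t=20 sec, 2 min read. EC50/IC50 from dose-response curves.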

[4] = Metabolic stability in human liver microsomes; format: in vitro ADME
Procedure: Metabolic Stability Study
The metabolic stability of compounds in human, dog, rat and mouse liver microsomes was performed according the experimental conditions reported below:
• a) Prepare the following 5 stock solutions: • 1. Test compound stock solutions: dilute 10 mM solution of dextromethorphan (Dtr) in DMSO, 10 mM solution of diphenhydramine (DPA) in DMSO, 10 mM solution of omeprazole (Ome) in DMSO, 10 mM solution of verapamil (Ver) in DMSO, and 10 mM of an inverse agonist compound in DMSO to 0.25 mM solution each with acetonitrile/water (70/30). • 2. Buffer: 100 mM potassium phosphate Buffer (PBS) at pH 7.4 • 3. Liver microsomes (20 mg/ml): Thaw in 37° C. water bath quickly • 4. 2000 μL: of NADPH regenerating system (1.3 mM). Place this system on ice before use:
• 5. […] The test compound concentration in the wells, measured by LC-MS/MS, represents the concentration at time=0. • f) To determine the test compound concentration when t≠0, pre-incubate the NADPH regenerating system and the incubation plate containing the remaining 320 μL of incubation mixture (microsomes protein and test compound) for 5 minutes at 37° C. • g) Start the incubation reaction by adding 80 μL NADPH regenerating system to each well containing the remaining 320 μL incubation mixture. • h) After 10 min., 30 min., and 90 min. of incubation at 37° C., transfer 100 μL of the incubation mixture (microsomes protein, test compound, and NADPH) into the wells of a stop plate pre-filled with 300 μL of the cold quench solution. Shake well. • i) Centrifuge the stop plate at 5000×g for 10 minutes. Collect and dilute the supernatant 3 times with distilled water. Sample and analyze the test compound concentration for all the wells by LC-MS/MS. Animal PK Studies via i.v. (intravenous), p.o. (orally) and s.c. (subcutaneous) administrations

[5] = target: T2, GHSR-1a (HEK293/GHSR1a cell line); experiment: Ghrelin agonist potency (EC50) with calcium FLIPR assay; format: cell-based; details: ghrelin agonist potency, read-out: Activity EC50/EMax
Summary of the method: as §1

[6] = inverse agonist potency, read-out: EC50 (Activity)
[7] = ghrelin inverse agonist potency, read-out: Activity EC50

T2 sequence (Q92847 whole entry): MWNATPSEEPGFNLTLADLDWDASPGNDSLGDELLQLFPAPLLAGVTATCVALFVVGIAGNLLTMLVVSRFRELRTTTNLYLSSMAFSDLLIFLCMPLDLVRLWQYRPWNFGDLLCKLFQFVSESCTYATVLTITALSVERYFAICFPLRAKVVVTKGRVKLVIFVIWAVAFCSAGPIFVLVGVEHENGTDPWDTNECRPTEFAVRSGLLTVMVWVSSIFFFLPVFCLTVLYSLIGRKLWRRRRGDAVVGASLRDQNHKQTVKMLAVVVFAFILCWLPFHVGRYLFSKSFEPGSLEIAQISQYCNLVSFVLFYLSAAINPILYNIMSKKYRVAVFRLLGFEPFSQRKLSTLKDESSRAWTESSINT
T1 sequence (Q92847 whole entry): as above

Row | SMILES | pEC50 [1, 7] | Metabolic Stability Study H = human [4] | pEC50 [5] | pIC50 ([3]; read-out: Activity IC50) | other results
1 | C[C@H](NC(=O)Nc1ccc(S(=O)(=O)Nc2ccc3c(c2)CCNC3)cc1)c1cccc(Cl)c1Cl.Cl [H1004, (S)-4-(3-(1-(2,3-dichlorophenyl)ethyl)ureido)-N-(1,2,3,4-tetrahydroisoquinolin-6-yl)benzenesulfonamide] |  |  |  |  | pEC50 [1, 6]: 8.40; PK F [2]: 13%; PK CLiv [2]: 592 mL/min/kg; PK Vdiv [2]: 37.7 L/kg; PK t1/2iv [2]: 0.74 h; PK CLpo [2]: 3732 mL/min/kg; PK Vdpo [2]: 479.2 L/kg; PK t1/2po [2]: 1.48 h; pIC50 ([3]; read-out: IC50 (Activity)): 8.43
2 | COc1ccc([C@H](C)NC(=O)Nc2ccc(S(=O)(=O)Nc3ccc4c(c3)CCNC4)cc2)c(Cl)c1Cl.Cl [H1005, (S)-4-(3-(1-(2,3-dichloro-4-methoxyphenyl)ethyl)ureido)-N-(1,2,3,4-tetrahydroisoquinolin-6-yl)benzenesulfonamide] |  |  |  |  | pEC50 [1, 6]: 8.05; PK F [2]: 1.3%; PK CLiv [2]: 7.33 mL/min/kg; PK Vdiv [2]: 1.46 L/kg; PK t1/2iv [2]: 2.3 h; PK CLpo [2]: 555.5 mL/min/kg; PK Vdpo [2]: 112.3 L/kg; PK t1/2po [2]: 2.33 h; pIC50 ([3]; read-out: IC50 (Activity)): 7.70
3 | CCOC(=O)N1CCc2cc(NS(=O)(=O)c3ccc(NC(=O)N[C@@H](C)c4cccc(Cl)c4Cl)cc3)ccc2C1 [H1054, ethyl (S)-6-((4-(3-(1-(2,3-dichlorophenyl)ethyl)ureido)phenyl)sulfonamido)-3,4-dihydroisoquinoline-2(1H)-carboxylate] |  |  |  |  | PK F [2]: 3.0%; PK CLiv [2]: 27 mL/min/kg; PK Vdiv [2]: 4.32 L/kg; PK t1/2iv [2]: 1.85 h; PK CLpo [2]: 898 mL/min/kg; PK Vdpo [2]: 96.2 L/kg; PK t1/2po [2]: 1.24 h; pIC50 ([3]; read-out: IC50 (Activity)): 5.00
4 | CC(c1ccccc1F)N(O)C(=O)Nc1ccc(S(=O)(=O)Cc2ccc3c(c2)CNC3)cc1.Cl (stereo not shown) [H1490, 1-(1-(2-fluorophenyl)ethyl)-1-hydroxy-3-(4-((isoindolin-5-ylmethyl)sulfonyl)phenyl)urea] | 8.44 | H = 12.8 μL/min/mg | < 4.52 | 8.27 | 
5 | CC(c1ccccc1F)N(O)C(=O)Nc1ccc(S(=O)(=O)Cc2ccc3c(c2)CN(C)C3)cc1 (stereo not shown) [H1491, 1-(1-(2-fluorophenyl)ethyl)-1-hydroxy-3-(4-(((2-methylisoindolin-5-yl)methyl)sulfonyl)phenyl)urea] | 8.34 | H = 79.5 μL/min/mg | < 4.52 | 7.53 | 
6 | CC(NC(=O)Nc1ccc(S(=O)(=O)Cc2ccc3c(c2)CNC3)c(F)c1)c1ccccc1.Cl (stereo not shown) [H1492, 1-(3-fluoro-4-((isoindolin-5-ylmethyl)sulfonyl)phenyl)-3-(1-phenylethyl)urea] | 8.29 | H = 24.4 μL/min/mg | < 4.52 | 7.44 | 
7 | Cc1cc(NC(=O)NC(C)c2ccccc2)ccc1S(=O)(=O)Cc1ccc2c(c1)CNC2 (stereo not shown) [H1493, 1-(4-((isoindolin-5-ylmethyl)sulfonyl)-3-methylphenyl)-3-(1-phenylethyl)urea] | 8.38 | H = 21.5 μL/min/mg | < 4.52 | 7.82 | 
8 | CC(NC(=O)Nc1ccc(S(=O)(=O)Cc2ccc3c(c2)CNC3)c(Cl)c1)c1ccccc1 (stereo not shown) [H1494, 1-(3-chloro-4-((isoindolin-5-ylmethyl)sulfonyl)phenyl)-3-(1-phenylethyl)urea] | 8.40 | H = 19.1 μL/min/mg | < 4.52 | 7.97 | 
9 | COc1cc(S(=O)(=O)Cc2ccc3c(c2)CNC3)ccc1NC(=O)N(O)C(C)c1cccc(Cl)c1Cl (stereo not shown) [H1495, 1-(1-(2,3-dichlorophenyl)ethyl)-1-hydroxy-3-(4-((isoindolin-5-ylmethyl)sulfonyl)-2-methoxyphenyl)urea] | 8.92 | H = 21.1 μL/min/mg | < 4.52 | 8.67 | 
10 | COc1cc(S(=O)(=O)Cc2ccc3c(c2)CN(C)C3)ccc1NC(=O)N(O)C(C)c1cccc(Cl)c1Cl (stereo not shown) [H1496, 1-(1-(2,3-dichlorophenyl)ethyl)-1-hydroxy-3-(2-methoxy-4-(((2-methylisoindolin-5-yl)methyl)sulfonyl)phenyl)urea] | 8.60 | H = 178.3 μL/min/mg | < 4.52 | 8.23 | 
11 | CNC(=O)c1cc(S(=O)(=O)Cc2ccc3c(c2)CNC3)ccc1NC(=O)NC(C)c1ccccc1 (stereo not shown) [H1499, 5-((isoindolin-5-ylmethyl)sulfonyl)-N-methyl-2-(3-(1-phenylethyl)ureido)benzamide] | 8.15 | H = 27.1 μL/min/mg | < 4.52 | 7.42 | 
12 | C[C@@H](NC(=O)Nc1ccc(S(=O)(=O)Cc2ccc3c(c2)C(F)CNC3)cc1)c1ccccc1 (stereo partly drawn) [H1540, 1-(4-(((4-fluoro-1,2,3,4-tetrahydroisoquinolin-6-yl)methyl)sulfonyl)phenyl)-3-((R)-1-phenylethyl)urea] | 6.69 |  | < 4.52 | 5.13 | 
13 | CC(NC(=O)Nc1ccc(S(=O)(=O)Cc2ccc3c(c2)C(F)(F)CNC3)cc1)c1ccccc1 (stereo not shown) [H1545, 1-(4-(((4,4-difluoro-1,2,3,4-tetrahydroisoquinolin-6-yl)methyl)sulfonyl)phenyl)-3-(1-phenylethyl)urea] | 7.72 |  | < 4.52 | 5.76 | 
14 | CC(NC(=O)Nc1ccc(S(=O)(=O)Cc2ccc3c(c2)C(F)(F)CN(C)C3)cc1)c1ccccc1 (stereo not shown) [H1546, 1-(4-(((4,4-difluoro-2-methyl-1,2,3,4-tetrahydroisoquinolin-6-yl)methyl)sulfonyl)phenyl)-3-(1-phenylethyl)urea] | 6.90 |  | < 4.52 | 5.97 | 
15 | CC(NC(=O)Nc1ccc(S(=O)(=O)Cc2ccc3c(c2)C(F)(F)CNC3)cc1)c1cccc(Cl)c1Cl (stereo not shown) [H1547, 1-(1-(2,3-dichlorophenyl)ethyl)-3-(4-(((4,4-difluoro-1,2,3,4-tetrahydroisoquinolin-6-yl)methyl)sulfonyl)phenyl)urea] | 7.46 |  | < 4.52 | 6.34 | 
16 | CC(NC(=O)Nc1ccc(S(=O)(=O)Cc2ccc3c(c2)C(F)(F)CN(C)C3)cc1)c1cccc(Cl)c1Cl (stereo not shown) [H1548, 1-(1-(2,3-dichlorophenyl)ethyl)-3-(4-(((4,4-difluoro-2-methyl-1,2,3,4-tetrahydroisoquinolin-6-yl)methyl)sulfonyl)phenyl)urea] | 6.88 |  | < 4.52 | 6.18 | 
17 | CC(NC(=O)Nc1ccc(S(=O)(=O)Cc2ccc3c(c2)CNC3)cc1C(=O)O)c1cccc(Cl)c1Cl (stereo not shown) [H1549, 2-(3-(1-(2,3-dichlorophenyl)ethyl)ureido)-5-((isoindolin-5-ylmethyl)sulfonyl)benzoic acid] | 8.92 |  | < 4.52 | 8.77 | 
